System: Hepatitis C virus genotype 1
Experiment: Clinical study of alisporivir/peg-IFNα2a/ribavirin in treatment naïve chronic HCV genotype 1 patients, by IL28B genotype
Type: in vivo, human
Text: An international, multicentre, randomised, double-blind, placebo-controlled, 4-arm parallel-group multiple dose study comparing three alisporivir/peg-IFNα2a/ribavirin regimens to standard of care treatment in 272 treatment naïve chronic HCV genotype 1 patients is provided.
Patients are randomized into one of 3 treatment arms (A, B and C) as described below in a 1:1:1 ratio. The randomization is stratified by baseline HCV RNA (HCV RNA<800000 IU/mL or HCV RNA≧800000 IU/mL) and BMI (BMI<25 kg/m2 or BMI≧25 kg/m2) at screening.
Alisporivir: 3 capsules of 200 mg (600 mg) alisporivir 2×/day orally for 1 week followed by 3 capsules of 200 mg alisporivir (600 mg) 1×/day for 47 weeks.
Pegylated interferon alfa 2a: 180 μg subcutaneously (s.c.) once weekly for 48 weeks
Ribavirin: 1000 mg/day (<75 kg) or 1200 mg/day (≧75 kg) orally in two divided doses for 48 weeks
Primary efficacy endpoint: proportion of patients achieving SVR 24 (HCV RNA<10 IU/mL at maximum 24 weeks after treatment end).
Genotyping of IL-28B by was carried out using the MALDI-TOF MS (matrix-assisted laser desorption/ionization time-of-flight mass spectrometer) technique which has emerged as a widely applicable method in molecular biology for fast and highly accurate DNA analysis. […]
Frequency of genetic polymorphisms of IL28B was calculated by treatment arm. […]

With `C/C=C/C[C@@H](C)[C@@H](O)[C@H]1C(=O)N[C@@H](CC)C(=O)N(C)[C@H](C)C(=O)N(CC)[C@@H](C(C)C)C(=O)N[C@@H](C(C)C)C(=O)N(C)[C@@H](CC(C)C)C(=O)N[C@@H](C)C(=O)N[C@H](C)C(=O)N(C)[C@@H](CC(C)C)C(=O)N(C)[C@@H](CC(C)C)C(=O)N(C)[C@@H](C(C)C)C(=O)N1C` [alisporivir, Alisporivir] the “treatment results of chronic Hepatitis C virus genotype 1 infection” value (patient with IL28B nonC/C genotype) was “particularly satisfactory treatment results” and the “treatment of HCV” value (patients with IL28B C/C genotype) was “can also be used effectively”.

Source: patent US20150139950A1, “ALISPORIVIR TO TREAT HEPATITIS C VIRUS INFECTION” (Novartis AG, priority 2011, published 2015)
